One compound from patent publication US12121525B2, “Methods for treating GI syndrome and graft versus host disease” (Sloan Kettering Institute for Cancer Research, priority 2007, dated 2024) can be followed below.

Molecules are shown by their SMILES.

The subject of test [1] is C57BL/6 hepatocytes. Type of test: cell-based. Conditions: 200 nM, CTL-treated asmase−/− hepatocytes. The method, then:
Whereas Fas-mediated apoptotic death receptor activation requires generation of ceramide-rich platforms in some cell systems, CTL-induced platform generation was assessed in asmase^+/+ and asmase^−/− hepatocytes in the ex vivo model of GvHD. Alloactivated T cells induced rapid generation of ceramide-rich platforms on the surface of the target hepatocytes 10 min following co-incubation (FIG. 16C). Platform generation increased within one minute, peaked at 10 min, and persisted for over 60 min (FIG. 16D). Fas, required for apoptosis in this system, concentrated within the ceramide-rich platform as determined by confocal microscopy.
Platforms were detected as previously described. […]; Sigma-Aldrich) for 45 min at 4° C., washed twice in PBS containing 0.1% Triton X-100 and mounted in fluorescent mounting medium (Dako, Carpenteria CA). Fluorescence was detected using an Axiovert S-100 Zeiss fluorescence microscope equipped with a SPOT digital camera. The percentage of cells containing platforms, i.e. those in which the fluorescence condenses onto less than 15% of the cell surface, was determined by counting 150-250 cells per point. Alternately, platforms were identified using a mouse monoclonal anti-ceramide antibody MID 15B4 IgM (1:50 dilution, Alexis Biochemicals), mouse monoclonal anti-Fas CH-11 IgM (1:500 dilution, Upstate Biotechnology) or polyclonal rabbit anti-ASMase antibody 1598 (1:100 dilution) and detected using Cy3-conjugated anti-mouse or anti-rabbit IgM (1:500 dilution, Roche Molecular Biochemicals), respectively. Rabbit polyclonal anti-CD46 (1:1000 dilution, Santa Cruz Biotechnology, Santa Cruz CA) was used as a negative control. In some studies, confocal images were obtained using a Leica TCS SPZ upright confocal microscope. Alternatively, 0.5×10^6hepatocytes were stimulated for the indicated times with CTLs and platform formation was assessed as described.

In test [2] the test system is C57BL/6 splenocytes. Nature of the test: Platform generation on target splenocytes coincubated with MLR-primed CTLs. Conditions: 500 nM.
The test system of test [3] is C57BL/6 splenocytes. Nature of the test: MLR-primed CTL-induced splenocyte lysis (51Cr release). The class given is cell-based, mouse. As to conditions: 500 nM. How it is done:
To show the generic role of target cell ASMase in T cell-induced lysis, we used two standardized assays for T cell function; MLR-primed CTL-induced splenocyte lysis (FIG. 17) and in vitro activation-induced cell death (AICD) of T cells (FIG. 18). The role of target cell ASMase was assessed in an in vitro activated MLR, in which C57BL/6 splenocyte target cells of asmase^+/+ or asmase^−/− genotype were stimulated for 48 hrs with mitogen, washed and chromium labeled. These cells were then coincubated with effector Balb/c splenocytes activated for 5 days by culture with irradiated C57BL/6 splenocytes. Chromium release was quantified and the % lysis was calculated. […] Washed splenocytes cells were coincubated with increasing ratios of activated effector Balb/c T cells, and ^51Cr release was quantified 6 hour thereafter. […]
To evaluate a potential generic role for target cell ASMase in platform generation in T cell-induced lysis, we tested two standardized assays for T cell-mediated cytolysis, MLR-primed CTL-induced splenocyte lysis, and in vitro AICD of T cells. […] Furthermore, MLR-primed CTLs induced 43.2±6.5% asmase^+/+ splenocyte lysis at an effector:target ratio of 50:1 (FIG. 19B), attenuated to 7.3±2.5% lysis in asmase^−/− target cells, as quantified by ^51Cr-release assay. […]

Regarding `CCCCCCCCCCCCC/C=C/[C@@H](O)[C@H](CO)NC(=O)CCCCCCCCCCCCCCC` [C16-ceramide], in test [1], the “platform formation, % of cells” value turned out to be 46.3±1.3%. Besides, in test [2], the “platform generation on asmase−/− target splenocytes” value is “restored”. Besides, the “CTL-induced lysis of asmase−/− target splenocytes” value in test [3] was “restored”.
